Experimental data taken from US20240368150A1 (Hoffmann-La Roche Inc., priority 2021, published 2024).
Structures can show the parent of a compound that is named as a salt. Where two headings read alike, the source gives them in different places.

What was measured:
primary human T-cells [1] = test system: primary human T-cells
primary human T-cells [2] = assay: Proliferation assay after 5 days (CellTiter-Glo, CD3 stimulation; PBS counter screen); type: cell-based; details: CD3 stimulation; for Emax: 5 days, normalized to reference compound A1 as stimulator control = 100%, DMSO neutral control, read-out: Emax proliferation (% activation); for EC50: primary human T-cells, CellTiter-Glo after 5 days, EC50 of fitted sigmoidal curve, read-out: Tcell Proliferation CD3 EC50
Method in brief: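 Proliferation is measured 5 days post-treatment as ATP-dependent luminescence. Flags mark compounds that activated unstimulated cells or harmed viability.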

CC(=O)N1CCC(C)(c2nnc(-c3cc4c(cc3F)S(=O)(=O)C[C@H](N)C(=O)N4Cc3ccc(Cl)cc3)o2)CC1 [Example 169, (3R)-7-[5-(1-acetyl-4-methyl-4-piperidyl)-1,3,4-oxadiazol-2-yl]-3-amino-5-[(4-chlorophenyl)methyl]-8-fluoro-1,1-dioxo-2,3-dihydro-1λ^6,5-benzothiazepin-4-one]
EC50 (primary human T-cells [1]): 3340 nM | Emax (primary human T-cells [2]; Homo sapiens, T-cell, 120 h): 95% | EC50 (primary human T-cells [2]; Homo sapiens, T-cell, 120 h): 2470 nM

CN1CCC(c2nnc(-c3cc4c(cc3F)S(=O)(=O)C[C@H](N)C(=O)N4Cc3ccc(Cl)cc3)o2)C1 (stereo partly drawn) [Example 144, (3R)-3-amino-5-[(4-chlorophenyl)methyl]-8-fluoro-7-[5-(1-methylpyrrolidin-3-yl)-1,3,4-oxadiazol-2-yl]-1,1-dioxo-2,3-dihydro-1λ^6,5-benzothiazepin-4-one]
EC50 (primary human T-cells [1]): 1820 nM | Emax (primary human T-cells [2]; Homo sapiens, T-cell, 120 h): 106% | EC50 (primary human T-cells [2]; Homo sapiens, T-cell, 120 h): 6150 nM

N[C@H]1CS(=O)(=O)c2cc(F)c(-c3nnc(N4CCC5(CC4)CC(F)(F)CN5)o3)cc2N(Cc2ccc(Cl)cc2)C1=O [Example 475, (3R)-3-amino-5-[(4-chlorophenyl)methyl]-7-[5-(3,3-difluoro-1,8-diazaspiro[4.5]decan-8-yl)-1,3,4-oxadiazol-2-yl]-8-fluoro-1,1-dioxo-2,3-dihydro-1λ^6,5-benzothiazepin-4-one; hydrochloride]
EC50 (primary human T-cells [1]): 4240 nM | Emax (primary human T-cells [2]; Homo sapiens, T-cell, 120 h): 85% | EC50 (primary human T-cells [2]; Homo sapiens, T-cell, 120 h): 941 nM

N[C@H]1CS(=O)(=O)c2cc(F)c(-c3nnc(C(=O)N4CCCC(F)(F)C4)o3)cc2N(Cc2ccc(Cl)cc2)C1=O [Example 93, (3R)-3-amino-5-[(4-chlorophenyl)methyl]-7-[5-(3,3-difluoropiperidine-1-carbonyl)-1,3,4-oxadiazol-2-yl]-8-fluoro-1,1-dioxo-2,3-dihydro-1λ^6,5-benzothiazepin-4-one]
EC50 (primary human T-cells [1]): 660 nM | Emax (primary human T-cells [2]; Homo sapiens, T-cell, 120 h): 100% | EC50 (primary human T-cells [2]; Homo sapiens, T-cell, 120 h): 1750 nM

CC(C)(C)c1nnc(-c2cc3c(cc2F)S(=O)(=O)C[C@H](N)C(=O)N3Cc2ccc(OC(F)F)cc2)o1 [Example 223, (3R)-3-amino-7-(5-tert-butyl-1,3,4-oxadiazol-2-yl)-5-[[4-(difluoromethoxy)phenyl]methyl]-8-fluoro-1,1-dioxo-2,3-dihydro-1λ^6,5-benzothiazepin-4-one]
EC50 (primary human T-cells [1]): > 20000 nM | Emax (primary human T-cells [2]; Homo sapiens, T-cell, 120 h): 128% | EC50 (primary human T-cells [2]; Homo sapiens, T-cell, 120 h): < 162 nM

N[C@H]1CS(=O)(=O)c2cc(F)c(-c3noc(N4CCOC(F)(F)C4)n3)cc2N(Cc2ccc(Cl)cc2)C1=O [Example 204, (3R)-3-amino-5-[(4-chlorophenyl)methyl]-7-[5-(2,2-difluoromorpholin-4-yl)-1,2,4-oxadiazol-3-yl]-8-fluoro-1,1-dioxo-2,3-dihydro-1λ^6,5-benzothiazepin-4-one]
EC50 (primary human T-cells [1]): 78.5 nM | Emax (primary human T-cells [2]; Homo sapiens, T-cell, 120 h): 154% | EC50 (primary human T-cells [2]; Homo sapiens, T-cell, 120 h): 34.8 nM

C#CC1(Nc2nnc(-c3cc4c(cc3F)S(=O)(=O)C[C@H](N)C(=O)N4Cc3ccc(Cl)cc3)o2)CCCCC1 [Example 497, (3R)-3-amino-5-[(4-chlorophenyl)methyl]-7-[5-[(1-ethynylcyclohexyl)amino]-1,3,4-oxadiazol-2-yl]-8-fluoro-1,1-dioxo-2,3-dihydro-1λ^6,5-benzothiazepin-4-one]
EC50 (primary human T-cells [1]): 1720 nM | Emax (primary human T-cells [2]; Homo sapiens, T-cell, 120 h): 125% | EC50 (primary human T-cells [2]; Homo sapiens, T-cell, 120 h): 874 nM

CC(=O)N1CCCC(n2nnc(-c3cc4c(cc3F)S(=O)(=O)C[C@H](N)C(=O)N4Cc3ccc(Cl)cc3)n2)C1 (stereo partly drawn) [Example 13, (3R)-7-[2-(1-acetyl-3-piperidyl)tetrazol-5-yl]-3-amino-5-[(4-chlorophenyl)methyl]-8-fluoro-1,1-dioxo-2,3-dihydro-1λ^6,5-benzothiazepin-4-one]
EC50 (primary human T-cells [1]): > 10000 nM | Emax (primary human T-cells [2]; Homo sapiens, T-cell, 120 h): 87% | EC50 (primary human T-cells [2]; Homo sapiens, T-cell, 120 h): 3510 nM

CN=S1(=O)C[C@H](N)C(=O)N(Cc2ccc(OC(F)(F)F)cc2)c2cc(-c3nnc(C(C)(C)C)o3)c(F)cc21 (stereo partly drawn) [Example 519, (3R)-3-amino-7-(5-tert-butyl-1,3,4-oxadiazol-2-yl)-8-fluoro-1-methylimino-1-oxo-5-[[4-(trifluoromethoxy)phenyl]methyl]-2,3-dihydro-1λ^6,5-benzothiazepin-4-one]
EC50 (primary human T-cells [1]): 5530 nM | Emax (primary human T-cells [2]; Homo sapiens, T-cell, 120 h): 72% | EC50 (primary human T-cells [2]; Homo sapiens, T-cell, 120 h): 4370 nM

CC(C#N)c1nnc(-c2cc3c(cc2F)S(=O)(=O)C[C@H](N)C(=O)N3Cc2ccc(Cl)cc2)o1 (stereo partly drawn) [Example 103, 2-[5-[(3R)-3-amino-5-[(4-chlorophenyl)methyl]-8-fluoro-1,1,4-trioxo-2,3-dihydro-1λ^6,5-benzothiazepin-7-yl]-1,3,4-oxadiazol-2-yl]propanenitrile]
EC50 (primary human T-cells [1]): 583 nM | Emax (primary human T-cells [2]; Homo sapiens, T-cell, 120 h): 102% | EC50 (primary human T-cells [2]; Homo sapiens, T-cell, 120 h): 213 nM

N[C@H]1CS(=O)(=O)c2ccc(-c3nc(CC(F)(F)F)no3)nc2N(Cc2ccc(Cl)cc2)C1=O [Example 39, (3R)-3-amino-5-[(4-chlorophenyl)methyl]-1,1-dioxo-7-[3-(2,2,2-trifluoroethyl)-1,2,4-oxadiazol-5-yl]-2,3-dihydropyrido[3,2-b][1,4]thiazepin-4-one]
EC50 (primary human T-cells [1]): 842 nM | Emax (primary human T-cells [2]; Homo sapiens, T-cell, 120 h): 161% | EC50 (primary human T-cells [2]; Homo sapiens, T-cell, 120 h): 486 nM

N[C@H]1C[S+]([O-])c2cc(F)c(-c3noc(N4CCOCC4)n3)cc2N(Cc2ccc(Cl)cc2)C1=O (single isomer, unassigned; epimer a) [Example 209]
EC50 (primary human T-cells [1]): 5810 nM | Emax (primary human T-cells [2]; Homo sapiens, T-cell, 120 h): 92% | EC50 (primary human T-cells [2]; Homo sapiens, T-cell, 120 h): 4100 nM

CC(C)(C)c1nnc(-c2ccc3c(c2)N(Cc2ccc(OCC4CC4)cc2)C(=O)[C@@H](N)CS3(=O)=O)o1 [Example 431, (3R)-3-amino-7-(5-tert-butyl-1,3,4-oxadiazol-2-yl)-5-[[4-(cyclopropylmethoxy)phenyl]methyl]-1,1-dioxo-2,3-dihydro-1λ^6,5-benzothiazepin-4-one]
EC50 (primary human T-cells [1]): 4080 nM | Emax (primary human T-cells [2]; Homo sapiens, T-cell, 120 h): 110% | EC50 (primary human T-cells [2]; Homo sapiens, T-cell, 120 h): 1930 nM

N[C@H]1CS(=O)(=O)c2cc(F)c(-c3nnc(C4CC5(CCOC5)C4)o3)cc2N(Cc2ccc(Cl)cc2)C1=O (stereo partly drawn) [Example 110, (3R)-3-amino-5-[(4-chlorophenyl)methyl]-8-fluoro-7-[5-(6-oxaspiro[3.4]octan-2-yl)-1,3,4-oxadiazol-2-yl]-1,1-dioxo-2,3-dihydro-1λ^6,5-benzothiazepin-4-one]
EC50 (primary human T-cells [1]): 232 nM | Emax (primary human T-cells [2]; Homo sapiens, T-cell, 120 h): 131% | EC50 (primary human T-cells [2]; Homo sapiens, T-cell, 120 h): 125 nM

CC1CN(Cc2nnc(-c3cc4c(cc3F)SC[C@H](N)C(=O)N4Cc3ccc(Cl)cc3)o2)C1 [Example 507, (3R)-3-amino-5-[(4-chlorophenyl)methyl]-8-fluoro-7-[5-[(3-methylazetidin-1-yl)methyl]-1,3,4-oxadiazol-2-yl]-2,3-dihydro-1,5-benzothiazepin-4-one]
EC50 (primary human T-cells [1]): 8040 nM | Emax (primary human T-cells [2]; Homo sapiens, T-cell, 120 h): 74% | EC50 (primary human T-cells [2]; Homo sapiens, T-cell, 120 h): 2230 nM

CS(=O)(=O)N1CC(n2nnc(-c3cc4c(cc3F)S(=O)(=O)C[C@H](N)C(=O)N4Cc3ccc(Cl)cc3)n2)CC(F)(F)C1 (stereo partly drawn) [Example 23, (3R)-3-amino-5-[(4-chlorophenyl)methyl]-7-[2-(5,5-difluoro-1-methylsulfonyl-3-piperidyl)tetrazol-5-yl]-8-fluoro-1,1-dioxo-2,3-dihydro-1λ^6,5-benzothiazepin-4-one]
EC50 (primary human T-cells [1]): 3790 nM | Emax (primary human T-cells [2]; Homo sapiens, T-cell, 120 h): 161% | EC50 (primary human T-cells [2]; Homo sapiens, T-cell, 120 h): 588 nM

CC(C)(F)c1nc(-c2cc3c(cc2F)S(=O)(=O)C[C@H](N)C(=O)N3Cc2ccc(Cl)cc2)no1 [Example 47, (3R)-3-amino-5-[(4-chlorophenyl)methyl]-8-fluoro-7-[5-(1-fluoro-1-methyl-ethyl)-1,2,4-oxadiazol-3-yl]-1,1-dioxo-2,3-dihydro-1λ^6,5-benzothiazepin-4-one]
EC50 (primary human T-cells [1]): 2860 nM | Emax (primary human T-cells [2]; Homo sapiens, T-cell, 120 h): 142% | EC50 (primary human T-cells [2]; Homo sapiens, T-cell, 120 h): 561 nM

CC(CO)(CCl)c1nnc(-c2cc3c(cc2F)S(=O)(=O)C[C@H](N)C(=O)N3Cc2ccc(Cl)cc2)o1 (stereo partly drawn) [Example 115, (3R)-3-amino-7-[5-[1-(chloromethyl)-2-hydroxy-1-methyl-ethyl]-1,3,4-oxadiazol-2-yl]-5-[(4-chlorophenyl)methyl]-8-fluoro-1,1-dioxo-2,3-dihydro-1λ^6,5-benzothiazepin-4-one]
EC50 (primary human T-cells [1]): 2210 nM | Emax (primary human T-cells [2]; Homo sapiens, T-cell, 120 h): 127% | EC50 (primary human T-cells [2]; Homo sapiens, T-cell, 120 h): 495 nM

CCc1ncn(-c2cc3c(cc2F)S(=O)(=O)C[C@H](N)C(=O)N3Cc2ccc(Cl)cc2)n1 [Example 525, (3R)-3-amino-5-[(4-chlorophenyl)methyl]-7-(3-ethyl-1,2,4-triazol-1-yl)-8-fluoro-1,1-dioxo-2,3-dihydro-1λ^6,5-benzothiazepin-4-one]
EC50 (primary human T-cells [1]): 3510 nM | Emax (primary human T-cells [2]; Homo sapiens, T-cell, 120 h): 67% | EC50 (primary human T-cells [2]; Homo sapiens, T-cell, 120 h): 935 nM

CC(C)(C)c1nnc(-c2ccc3c(c2)N(Cc2ccc(OCC(F)F)cc2)C(=O)[C@@H](N)CS3(=O)=O)o1 [Example 432, (3R)-3-amino-7-(5-tert-butyl-1,3,4-oxadiazol-2-yl)-5-[[4-(2,2-difluoroethoxy)phenyl]methyl]-1,1-dioxo-2,3-dihydro-1λ^6,5-benzothiazepin-4-one]
EC50 (primary human T-cells [1]): 2700 nM | Emax (primary human T-cells [2]; Homo sapiens, T-cell, 120 h): 103% | EC50 (primary human T-cells [2]; Homo sapiens, T-cell, 120 h): 1440 nM

CC(C)(C)c1nc(-c2cc3c(cc2F)[S+]([O-])C[C@H](N)C(=O)N3Cc2ccc(Cl)cc2)no1 (single isomer, unassigned; epimer a) [Example 340]
EC50 (primary human T-cells [1]): 3080 nM | Emax (primary human T-cells [2]; Homo sapiens, T-cell, 120 h): 121% | EC50 (primary human T-cells [2]): 1350 nM

CC(C)(C)n1nnc(-c2cc3c(cc2F)S(=O)(=O)C[C@H](N)C(=O)N3Cc2ccc(OCC3CCOCC3)cc2)n1 [Example 33, (3R)-3-amino-7-(2-tert-butyltetrazol-5-yl)-8-fluoro-1,1-dioxo-5-[[4-(tetrahydropyran-4-ylmethoxy)phenyl]methyl]-2,3-dihydro-1λ^6,5-benzothiazepin-4-one]
EC50 (primary human T-cells [1]): 5280 nM | Emax (primary human T-cells [2]; Homo sapiens, T-cell, 120 h): 104% | EC50 (primary human T-cells [2]; Homo sapiens, T-cell, 120 h): 1900 nM

COC(=O)N1CCC(C#N)(c2nnc(-c3ccc4c(c3)N(Cc3ccc(Cl)cc3)C(=O)[C@@H](N)CS4(=O)=O)o2)CC1 [Example 389, methyl 4-[5-[(3R)-3-amino-5-[(4-chlorophenyl)methyl]-1,1,4-trioxo-2,3-dihydro-1λ^6,5-benzothiazepin-7-yl]-1,3,4-oxadiazol-2-yl]-4-cyano-piperidine-1-carboxylate]
EC50 (primary human T-cells [1]): > 2730 nM | Emax (primary human T-cells [2]; Homo sapiens, T-cell, 120 h): 80% | EC50 (primary human T-cells [2]; Homo sapiens, T-cell, 120 h): 1990 nM
